Measurements from ChEMBL document CHEMBL1157539, “Thousands of chemical starting points for antimalarial lead identification” (Nature, 2010).

Test system: Plasmodium falciparum
Test: GSK_TCMDC: Inhibition of Plasmodium falciparum 3D7 in whole erythrocytes, using parasite LDH activity as an index of growth.
Assay type: functional, organism-based
Details: Plasmodium falciparum, 3D7

Structure (SMILES)	XC50 [nM]
COc1ccc2nccc([C@@H](O)CN3CCC(NCc4cc5cccc(OCc6ccccc6)c5[nH]4)CC3)c2c1	899
CCCCCCN1CCC(NCc2cccc(C#N)c2)CC1	778
COc1cc2nccc(Nc3ccc(OCc4ccc(NC(C)=O)cc4)cc3)c2cc1OC	553
CC(C)(C)NCCN(Cc1ccc(-c2ccc(C(F)(F)F)cc2)cc1)C(=O)Cn1c(SCc2ccc(F)cc2)nc(=O)c2c1CCC2	860
Nc1cccc(CNCc2ccc(-c3ccc(-c4nc5cc(C(F)(F)F)ccc5[nH]4)s3)cc2)c1	438
COc1cccc2c(N/N=C/c3ccccc3[N+](=O)[O-])cc(C)nc12	424
CCOc1ccc(C(=O)Nc2ccc(-c3nc4ccccc4[nH]3)cc2)cc1[N+](=O)[O-]	591
CS(=O)(=O)c1ccc(-c2cnc(N)c(-c3cccc(CO)c3)c2)cc1	939
OCc1c(Cl)cc(Cl)cc1CNCCCNc1nc2ccccc2[nH]1	745
COc1ccc(CN2CCN(C(=O)c3cccs3)CC2)c(O)c1	838
CN1CCN(c2ccc(-c3cc(-c4cc(F)c(F)c(F)c4)cnc3N)cc2)CC1	1010
Nc1ccc2[nH]cc(C3CCN(CC4CCC(NC(=O)/C=C/c5ccccc5Cl)CC4)CC3)c2n1 (stereo not given)	688
O=[N+]([O-])c1ccc(-n2nc(Cc3ccccc3)n(Cc3cccc(F)c3)c2=S)c(C(F)(F)F)c1	769
c1ccc(COc2ccnc(NCCCOc3cccc(CN4CCCCC4)c3)c2)cc1	994
COc1cc(F)c2nccc([C@@H](O)CN3CCC(NCc4ccc5c(n4)NC(=O)CS5)C(F)C3)c2c1 (stereo not given in full)	1170
CC(C)CN1CCCN(Cc2cccc(NC(=O)c3cc4ccccc4s3)c2)CC1	1770
COC(=O)C1=C(C)NC2=C(C(=O)CC(c3ccc(OC)c(OC)c3)C2)C1c1cccc(O)c1 (stereo not given)	729
Cc1cccc2nc(-c3ccc(-c4cccc(CN5CC(C)OC(C)C5)c4)s3)[nH]c12 (stereo not given)	757
Cc1ccc(C(=O)Nc2ccc(C)c(OC3CCN(Cc4ccco4)C3)c2)cc1 (stereo not given)	966
CC(C)N1CCC(N(Cc2ccc(-c3ccc(C(F)(F)F)cc3)cc2)C(=O)CCCn2c(CCc3cccc(F)c3F)nc(=O)c3ccccc32)CC1	972
Cc1cccc(Nc2nccc(NCC(O)c3ccc(C(F)(F)F)cc3)n2)c1 (stereo not given)	555
CNC(=O)C1Cc2c([nH]c3c(C)cccc23)C2(N1)C(=O)Nc1ccc(OC(F)(F)F)cc12 (stereo not given)	464
COC(=O)c1cccc(NC(=O)NC2CCN(c3ccnc(Nc4ccc(OC)cc4)n3)C2)c1 (stereo not given)	472
c1ccc(Oc2ccc(Nc3ccnc4cc(-c5ccc(CNCCN6CCOCC6)o5)ccc34)cc2)cc1	439

Structure (SMILES)	XC50 [nM]
O=C(c1ccccc1F)N(Cc1ccc(Cl)cc1)c1ccccn1	1020
Cc1ccc(NC(=O)c2ccc(CN3CCCN(Cc4cccc(C#N)c4)CC3)cc2)cc1F	592
Cc1cc(-c2cccc(CNC3CCN(C)CC3)c2)ccc1S(=O)(=O)NC1CCC1	731
S=C(Nc1cccc(Cl)c1)NC1CCN(c2ccnc3cc(Cl)ccc23)C1 (stereo not given)	154
COC(=O)c1ccc(CC(C)NCC(O)c2cccc(Oc3cccc(C(F)(F)F)c3)c2)cc1 (stereo not given)	1170
Cc1ccc(CN2CCCN(Cc3ccc(C(=O)Nc4ccc(Cl)cc4)cc3)CC2)s1	1110
CCCN(CCC)C(=O)c1cc(C(=O)N[C@@H](Cc2ccccc2)[C@H](O)CNC(C)(C)c2cccc(C(F)(F)F)c2)cc(N2CCCCS2(=O)=O)c1	36.2
Cc1ccc(Nc2nc(N/N=C/c3ccccc3[N+](=O)[O-])nc(Nc3ccc([N+](=O)[O-])cc3)n2)cc1C	692
O=C(Cc1c[nH]cn1)Nc1cccc(-c2cccc(-c3nc4ccccc4[nH]3)c2)c1	1020
CC(CN1CCN(C)CC1)C(=O)Nc1cccc(-c2ccc(-c3nc4cc(F)ccc4[nH]3)cc2)c1 (stereo not given)	807
O=C(Nc1ccc(Cl)c(Cl)c1)Nc1ccc2c(c1)CCNCC2	532
Cc1cccc2nc(-c3cccc(-c4ccc(CNCCNC(=O)c5ccnn5C)cc4)c3)[nH]c12	167
CCOc1ccc2[nH]c(-c3ccccc3)cc(=NN=Cc3ccncc3)c2c1	149
Cc1cnc(-c2ccc(NC(=O)N3CCc4cc5nccc(N6CCN7CCC[C@H]7C6)c5cc43)c3ccccc23)o1	858
COc1cc2nc(N3CCC(CNC(=O)c4ccc(NC(=O)c5ccc(Cl)cc5)cc4)CC3)nc(N)c2cc1OC	264
CC1(C)CN(CCC2CCC(NC(=O)/C=C/c3ccc(F)cc3F)CC2)Cc2ccc(C#N)cc21 (stereo not given)	787
CCCNCc1ccc(-c2ccc(CN(C(=O)c3nn(-c4ccccc4)nc3C)C(C)CN(C)C)cc2)nc1 (stereo not given)	923
CCNc1cc(C(=O)N[C@@H](Cc2ccc(Cl)cc2)[C@H](O)CNC2CCCCC2)cc(N2CCCCS2(=O)=O)c1	150
COc1ccccc1CCNc1nccc(N[C@@H](Cc2ccccc2)C(=O)NCc2cccs2)n1	871
COc1ccc(CN2CCC(NCc3cccc(-n4ccnc4)c3)CC2)cc1	629
CC(=NNC(S)=NCCc1ccccn1)c1ccccn1	319
Clc1ccc(Cn2nc(Br)nc2Br)c(Cl)c1	439
O=C(NC1CCC(N2CCC(Cc3ccc(F)cc3)CC2)CC1)c1cc2ccccc2[nH]1 (stereo not given)	868
Cc1cccc(C(=O)Nc2ccnc(N3CCCN(Cc4cccc(O)c4)CC3)c2)c1	1210

Structure (SMILES)	XC50 [nM]
Ic1cc(CNC2CCCCC2)ccc1OCc1cccc(COc2ccc(CNC3CCCCC3)cc2I)c1	829
O=C(N[C@@H](Cc1ccccc1)C(=O)NC1CCCCCC1)c1ccc(O)c(-c2ccc(Cl)c(Cl)c2)c1	329
CC(C)Cn1c2ccccc2c2nc3nc(N)nc(N)c3nc21	725
CC(C)CN1C(=O)c2ccc(C(=O)Nc3nccs3)cc2C1=O	971
CCOC(=O)c1cn(CC)c2cc(OCc3ccccc3)ccc2c1=O	947
CC[C@H]1CN2CC[C@H]1C[C@H]2[C@@H](O)c1cc(OCCCN(C)C)nc2ccc(OC)cc12	132
COc1ccc(-c2nc(NCc3ccccc3)c3cc(OC)c(OC)cc3n2)cc1	398
CC1(C)N=C(NC(=O)c2cc([N+](=O)[O-])cc([N+](=O)[O-])c2)N=C(N)N1OCc1cccc2ccccc12	6.84
CCN(CC)CCN(Cc1ccc(-c2ccc(C(F)(F)F)cc2)cc1)C(=O)Cn1c(CCc2cccc(F)c2F)nc(=O)c2ccccc21	671
N=C(NCCCc1ccccc1)c1cccc(C(=N)NCCCc2ccccc2)n1	1380
COc1ccc(N2CCN(CCCCNC(=O)c3ccc(NC(=O)c4ccc(OC(F)(F)F)cc4)cc3)CC2)c(OC)c1	578
Fc1ccc(Nc2ccnc3cc(-c4cccc(CN5CCCCC5)c4)ccc23)c(Cl)c1	31.8
C[C@H](Cc1ccc(OCCCCCCCOc2ccc(C[C@@H](C)NC[C@H](O)c3cccc(Cl)c3)cc2)cc1)NC[C@H](O)c1cccc(Cl)c1	189
CCCCSc1nc2c(c(=O)n1Cc1ccco1)C1(CCCCC1)Cc1ccccc1-2	958
O=C(Nc1ccccc1)c1ccc(N2CCC(COc3cccc(C(F)(F)F)c3)CC2)nc1	298
NOCCCCOc1ccc(Br)cc1	189
CC1CCN(Cc2cccc(C(=O)NCc3ccc(F)c(-c4cccc(CN5CCN[C@@H](C)C5)c4)c3)c2)CC1	1460
CC[C@H](C)CNC(=O)c1cncc(-c2ccc(CNC3CCCC3)cc2)c1	1120
CC(C)c1ccc(NC(=O)c2ccc(C(=O)NCC3CCN(CC4CCCCC4)CC3)cc2)cc1	900
CC(=O)c1ccc(N2CCN(C(=O)Nc3ccc(Cl)cc3)CC2)cc1	979
Cc1cc(NCCC(=O)NCCOc2ccccc2)nc(NCc2ccccc2C)n1	867
Nc1ncc(-c2ccc(F)c(Cl)c2)c(N)n1	1230
N=C(N)NN=Cc1c2ccccc2c(Cl)c2cc(Cl)ccc12	791
c1cc(CN2CCN(c3ccncc3)CC2)cc(-c2ccc(-c3nc4ccccc4[nH]3)cc2)c1	153

Structure (SMILES)	XC50 [nM]
COc1cccc2c(N/N=C/c3ccccc3[N+](=O)[O-])ccnc12	588
CC(=O)c1ccc2nc[nH]c(=O)c2c1	722
CS(=O)(=O)CCNCc1nc(-c2ccc3c(Nc4ccc(Cl)cc4F)ccnc3c2)cs1	1080
Cc1ccc2c(Cl)c(C(=O)N3CC(C)OC(C)C3)sc2c1 (stereo not given)	176
CS(=O)(=O)c1ccc(CNCc2ccc(-c3ccc(-c4nc5cc(C(F)(F)F)ccc5[nH]4)s3)cc2)cc1	156
CCc1nn2c(Nc3ccncc3)cc(C)nc2c1-c1ccccc1	203
Cc1cc([N+](=O)[O-])ccc1NC(=O)Nc1cccc(C(F)(F)F)c1	721
CCn1ncc2c(N3CCCC3=O)cc(C(=O)N[C@@H](Cc3ccccc3)[C@H](O)CNC(C)(C)c3cccc(C(F)(F)F)c3)cc21	149
CCc1c[nH]c2c(N3CCCC3=O)cc(C(=O)N[C@@H](Cc3ccccc3)[C@H](O)CNC(C)(C)c3cccc(C(F)(F)F)c3)cc12	115
O=C(Cc1ccccc1)NC(CCN1CCC(O)(c2cccc(C(F)(F)F)c2)CC1)c1ccc(Cl)c(Cl)c1 (stereo not given)	855
Cc1cccc(C)c1CNc1ccnc2cc(Br)ccc12	172
COc1ccc(-c2cccc(NC(=O)c3ccc(Cl)cc3)c2)cc1CNC(C)C	695
O=C(c1cc(-c2ccccc2O)on1)N1CCN(C(c2ccccc2)c2ccccc2)CC1	335
CC1CN(c2cc(=O)n(Cc3cccc(NC(=O)Nc4ccc(-c5ccccc5)cc4)c3)cn2)CC(C)N1 (stereo not given)	396
Cc1cc(N(C)CCN(C)C)nc(Nc2ccc(Cl)cc2)n1	968
CN1CCN(c2cccc(Nc3nccc(NCC(O)c4ccccc4)n3)c2)CC1 (stereo not given)	718
CC(C)C(=O)Nc1c(F)cc(F)cc1CCc1ccc(O)cc1	504
Cc1nc2ccc3ccc(CNc4ccc5c(c4)CN([C@H](CCC(=O)O)C(=O)O)C5=O)cc3c2c(=O)[nH]1	860
COc1ccc(N2C(=O)c3c(c4ccccc4n3C)C2c2ccccc2O)cc1 (stereo not given)	117
CCOC(=O)c1nc(-c2cc(Cl)nc(Cl)c2)[nH]c1NC(=S)NCc1ccc(NS(C)(=O)=O)cc1	892
O=C(NCCN1CCOCC1)c1csc(C2CCCN(C(=O)c3ccc(O)c(-c4cc(Cl)cc(Cl)c4)c3)C2)n1 (stereo not given)	1030
COc1ccc2c(OC)cccc2c1CNCCCCCCNCc1c(OC)ccc2c(OC)cccc12	686
COC(=O)c1cccc(C#CCCOCCCCCCNC[C@H](O)c2cc(Cl)c(N)c(Cl)c2)c1	771
